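Each compound was tested at five concentrations against cells in 96-well plates for 48 hours. GI50 is the concentration that inhibits growth by half. TGI denotes the concentration required for complete inhibition of growth.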

Some test systems named below: A549 NSCLC; HCT-15 colon; SF-539 CNS; DU-145 prostate; HT29 colon; U251 CNS; SK-MEL-2 melanoma; SN12C renal; SNB-19 CNS; SK-MEL-5 melanoma.
Common to all, as to test: inhibition of tumour cell growth, NCI panel, 48 h

Consider `CN(C)CCNc1ccc(CO)c2sc3ccc(O)cc3c(=O)c12`, for which the TGI in the assay on A549 NSCLC was found to be 6.77 µM; with HCT-15 colon, 14.2 µM; in the assay with SF-539 CNS it was 6.9 µM; with DU-145 prostate it was 4.05 µM; with HT29 colon, 9.35 µM; in the assay on U251 CNS, 7.46 µM. Besides, the TGI worked out at 11.6 µM in the assay with SK-MEL-2 melanoma, 15.4 µM in the assay on SN12C renal, 11.9 µM in the assay on SNB-19 CNS and 8.37 µM in the assay on SK-MEL-5 melanoma.

In the case of `O=C(Nc1cc(C(F)(F)F)ccc1Cl)c1ccc(NC2=C(Cl)C(=O)N(Cc3ccccc3)C2=O)cc1`, the GI50 in the assay with A549 NSCLC is above 100 µM; with HCT-15 colon, 13.2 µM; in the assay with SF-539 CNS it was 28.9 µM; in the assay with DU-145 prostate it was 26.9 µM; in the assay on HT29 colon, 26.6 µM; with U251 CNS it was 22.6 µM. For the same compound, the GI50 was 18.6 µM in the assay with SK-MEL-2 melanoma, 19.6 µM in the assay on SN12C renal, 30.4 µM in the assay with SNB-19 CNS and 18.6 µM in the assay with SK-MEL-5 melanoma. The TGI in the assay on A549 NSCLC was above 100 µM; in the assay with HCT-15 colon, above 100 µM; in the assay with SF-539 CNS it was 77.5 µM; in the assay on DU-145 prostate, 80.9 µM; with HT29 colon, above 100 µM; in the assay with U251 CNS, above 100 µM. Also, the TGI in the assay on SK-MEL-2 melanoma is 40.6 µM; in the assay on SN12C renal, 61.2 µM; with SNB-19 CNS it was above 100 µM; in the assay on SK-MEL-5 melanoma, 60.4 µM.

With `CCN(CC)CCCNc1ccc2nc(C)n3c4ccc(O)cc4c(=O)c1c23`, the TGI worked out at 18.7 µM in the assay with A549 NSCLC; 15.6 µM in the assay on HCT-15 colon; 22.7 µM in the assay on SF-539 CNS; 19.7 µM with DU-145 prostate; 14.2 µM in the assay with HT29 colon; 21 µM with U251 CNS. The TGI in the assay with SK-MEL-2 melanoma was determined as 21.3 µM; with SN12C renal it was 18.7 µM; with SNB-19 CNS it was 22 µM; in the assay with SK-MEL-5 melanoma it was 24.5 µM.

As to `CC[n+]1oc(C(=O)c2ccc(Cl)cc2)c(-c2ccccc2)c1-c1ccccc1.[Cl][Fe]([Cl])([Cl])[Cl]`, the GI50 in the assay with A549 NSCLC is 22.1 µM; with HCT-15 colon it was 72.6 µM; in the assay on SF-539 CNS, above 100 µM; in the assay on DU-145 prostate, 18.9 µM; in the assay on HT29 colon, 41.8 µM; with U251 CNS, 6.63 µM. Further, the GI50 in the assay with SK-MEL-2 melanoma was 30.8 µM; in the assay on SN12C renal, 83.5 µM; in the assay with SNB-19 CNS, above 100 µM; in the assay with SK-MEL-5 melanoma, 19.5 µM. Besides, the TGI with A549 NSCLC was 68 µM; in the assay with HCT-15 colon it was above 100 µM; with SF-539 CNS, above 100 µM; with DU-145 prostate, 75 µM; with HT29 colon it was above 100 µM; in the assay on U251 CNS it was above 100 µM. The TGI with SK-MEL-2 melanoma is 85.9 µM; in the assay with SN12C renal, above 100 µM; with SNB-19 CNS it was above 100 µM; in the assay on SK-MEL-5 melanoma, 45.8 µM.

In the case of `O=S(=O)(NCCNc1nccc(-c2c(-c3ccc(F)c(O)c3)nc3sccn23)n1)c1ccc(F)cc1`, the GI50 was 3.63 µM with A549 NSCLC; 3.25 µM in the assay on HCT-15 colon; 4.54 µM in the assay with SF-539 CNS; 3.47 µM with DU-145 prostate; 4.19 µM in the assay with HT29 colon; 4.75 µM in the assay on U251 CNS. In addition, the GI50 is 1.87 µM in the assay on SK-MEL-2 melanoma, 2.83 µM in the assay on SN12C renal, 4.26 µM with SNB-19 CNS and 1.52 µM with SK-MEL-5 melanoma. Moreover, the TGI is 58 µM in the assay on A549 NSCLC; 52.6 µM in the assay with HCT-15 colon; 25.3 µM with SF-539 CNS; 29.2 µM in the assay with DU-145 prostate; 31.1 µM in the assay on HT29 colon; above 100 µM in the assay on U251 CNS. Moreover, the TGI is 12.9 µM with SK-MEL-2 melanoma, 71.5 µM in the assay with SN12C renal, above 100 µM with SNB-19 CNS and 2.98 µM in the assay on SK-MEL-5 melanoma.

`[C](#Cc1ccccc1)[Hg][C]#Cc1ccccc1`: the GI50 in the assay on A549 NSCLC was 50.1 µM; in the assay on HCT-15 colon, 21.1 µM; with SF-539 CNS it was 53.1 µM; with DU-145 prostate, 48.2 µM; in the assay with HT29 colon, 14.1 µM; in the assay with U251 CNS, 22.4 µM. The GI50 in the assay on SK-MEL-2 melanoma was 37.7 µM; in the assay on SN12C renal, 30.1 µM; with SNB-19 CNS, 47.3 µM; in the assay on SK-MEL-5 melanoma, 53.3 µM. Moreover, the TGI in the assay on A549 NSCLC is above 100 µM; in the assay with HCT-15 colon, 43.7 µM; in the assay with SF-539 CNS it was above 100 µM; in the assay on DU-145 prostate, above 100 µM; in the assay with HT29 colon it was 40.9 µM; in the assay with U251 CNS it was 43.9 µM. Further, the TGI is above 100 µM in the assay on SK-MEL-2 melanoma, 73.3 µM in the assay with SN12C renal, above 100 µM in the assay with SNB-19 CNS and above 100 µM in the assay on SK-MEL-5 melanoma.

Consider `Cc1[nH]nc(C(F)(F)F)c1N=NN(C)C`, for which the TGI in the assay with A549 NSCLC was above 100 µM; in the assay with HCT-15 colon, 24.4 µM; with SF-539 CNS, 20.7 µM; in the assay with DU-145 prostate, 24.2 µM; with HT29 colon, 34.1 µM; with U251 CNS it was 36.5 µM. Also, the TGI with SK-MEL-2 melanoma is 35.5 µM; in the assay with SN12C renal, 30.1 µM; in the assay on SNB-19 CNS, 28.8 µM; with SK-MEL-5 melanoma it was above 100 µM.

For `COc1cc2c(c(OC)c1OC)-c1ncc3c(OC)c(OC)c(OC)cc3c1C2`, the GI50 with A549 NSCLC is 27.7 µM; with HCT-15 colon it was 28.6 µM; in the assay with DU-145 prostate it was 29.6 µM; in the assay on U251 CNS, 36.9 µM; with SK-MEL-2 melanoma it was 30.8 µM; with SN12C renal, 20.3 µM. Further, the results for the GI50 in the assay with SNB-19 CNS and in the assay on SK-MEL-5 melanoma were 40.1 µM and 16 µM, respectively. Further, the TGI in the assay on A549 NSCLC is above 100 µM; with HCT-15 colon, above 100 µM; in the assay on DU-145 prostate, above 100 µM; with U251 CNS, above 100 µM; in the assay on SK-MEL-2 melanoma it was 74.4 µM; in the assay with SN12C renal, 64.8 µM. Besides, the TGI in the assay on SNB-19 CNS was above 100 µM; in the assay on SK-MEL-5 melanoma, 30.5 µM.

Consider `COc1cc(C2SCCCCCCCCCCSC(c3ccc(O)c(OC)c3)SCCCCCCCCCCS2)ccc1O` (stereo not given), for which the TGI in the assay on A549 NSCLC, with HCT-15 colon, in the assay with DU-145 prostate, in the assay with HT29 colon, in the assay with U251 CNS and in the assay on SK-MEL-2 melanoma was above 100 µM throughout. Moreover, the TGI with SN12C renal, in the assay with SNB-19 CNS and in the assay on SK-MEL-5 melanoma was above 100 µM throughout.

Turning to `NC(=O)N/N=C(/CC1C(=O)Oc2ccccc21)c1ccccc1O` (stereo not given), the TGI was above 100 µM with A549 NSCLC; above 100 µM in the assay with HCT-15 colon; 91.1 µM with SF-539 CNS; above 100 µM in the assay on DU-145 prostate; above 100 µM with HT29 colon; above 100 µM in the assay on U251 CNS. Moreover, the TGI in the assay with SK-MEL-2 melanoma, with SN12C renal, with SNB-19 CNS and in the assay on SK-MEL-5 melanoma was above 100 µM in each case.

The values are drawn from PubChem BioAssay (NCI).
